Patent US20220000872A1, “METHOD OF ENHANCING IMMUNE-BASED THERAPY” (OncoTracker, Inc., priority 2018, published 2022)
Entries after “also recorded” stand apart in the source; their conditions may differ.

Columns and labels:
PD-L1 protein expression = PD-L1 protein expression on MM cells by flow cytometry, BMMCs co-cultured with HS-5 stromal cells; assay type: cell-based, human; settings: fresh MM BMMCs co-cultured with HS-5, 72 hours
Protocol: To investigate the effects of RUX on PD-L1 protein expression on myeloma cell membranes, fresh MM BMMCs were isolated from MM patients and co-cultured with stromal cells (HS-5, ATCC). After 72 hours, cells were fixed using 2% paraformaldehyde for 30 minutes on ice and washed with PBS twice. The cells were stained with anti-PD-L1 antibody conjugated with PE and anti-CD138 antibody conjugated with FITC antibody for 2 hrs and analyzed by flow cytometry using a Beckman Coulter FC500 cytometer with Cytomics CXP software (Beckman Coulter, Fullerton, Calif.).

[1] = test system: PD-L1 expression in the xenograft; assay: PD-L1 expression in human MM xenograft LAGκ-2 in severe combined immune deficient mice; assay type: in vivo; settings: LAGκ-2 in SCID mice; RUX 30 mg/kg; vs untreated control group
Protocol: (§1) We further investigated the effects of RUX on PD-L1 and PD-L2 expression in primary and stromal cells from MM patients' BM samples in vitro. […] We then determined whether RUX can augment the anti-MM effects of T-cells in vitro. […] To evaluate the efficacy of drugs in vivo, severe combined immune deficient mice implanted with the human MM xenograft LAGκ-2 were treated with RUX (30 mg/kg).

multiple myeloma = settings: Phase 1 clinical trial NCT00639002; cited from earlier work
B7-H3 = B7-H3 expression (qRT-PCR, flow cytometry, western blot) in MM cells (Example 12); assay type: cell-based, human
Protocol: Bone marrow mononuclear cells (BMMCs) were collected from MM patients after obtaining IRB approval. Single-cell suspensions were prepared from human MM LAGλ-1A xenografts which had been grown in severe combined immunodeficient mice. HS-5 stromal and SUP-T1 T cells were purchased from ATCC. The cells were cultured and treated with or without RUX and then subjected to qRT-PCR, flow cytometric analysis, and western blot analysis. For qRT-PCR, total RNA was extracted and applied to cDNA synthesis, followed by qPCR. Gene expression was analyzed in MM BMMCs alone or co-cultured with stromal cells or T cells with or without Rux treatment (1 μM) in vitro.

[2] = test system: PD-L2 gene and protein expression; assay: PD-L2 gene and protein expression in MM tumor cells alone or co-cultured with stromal cells (Example 11); assay type: cell-based, human; settings: concentration dependent pattern
Protocol: BM mononuclear cells (MCs) and serum were collected from MM patients and healthy subjects after obtaining IRB approval. Single-cell suspensions were prepared from human MM LAGκ-1A xenografts which had been grown in the mice. The cells were cultured and treated with or without RUX and then were determined by qPCR, flow cytometric analysis, ELISA, and western blot.
as §1

[3] = test system: Tumor cells from the LAGκ-1A human MM xenograft; assay: Annexin V apoptosis assay of LAGκ-1A myeloma tumor cells with or without IL-2 pre-treated T-cells; assay type: cell-based; settings: in the absence of T-cells
Protocol: T-cells (SUP-T1, ATCC) were pre-treated with IL-2 (20 ng/ml) for 24 hours. In the RUX at 1 μM with anti-PD-L1 group, the antibody concentrations were varied as indicated on the x-axis but the RUX was tested at a fixed concentration (1 μM). For the anti-PD-L1 at 5 mg/mL with RUX group, the RUX concentrations were varied as on the x-axis but the anti-PD-L1 antibody was evaluated at a fixed concentration (5 mg/mL). Tumor cells from the LAGκ-1A human MM xenograft were single-cell suspended and co-cultured with T cells treated with either RUX (1 μM) and anti-PD-L1 antibody or RUX alone for 72 hours. Tumor cell apoptosis was measured using the Annexin V assay per the manufacturer's protocol (Biovision) followed with flow cytometric analysis (FC-500 cytometer using Cytometric CXP software, both Beckman Coulter).
T-cells were pre-treated with IL-2 (20 ng/ml) for 24 hours. […] For the anti-PD-1 at 5 mg/mL with RUX group, the RUX concentrations were varied as on the x-axis but the anti-PD-1 antibody was evaluated at a fixed concentration (5 mg/mL). […] Tumor cell apoptosis was measured using the Annexin V assay per the manufacturer's protocol (Biovision) followed with flow cytometric analysis (FC-500 cytometer using Cytometric CXP software, both Beckman Coulter). […]

PD-L1 gene expression [4] = assay: PD-L1 gene expression (qPCR) in MM BMMCs co-cultured with THP-1 monocytes; assay type: cell-based, human; settings: BMMCs from MM patient #3041 co-cultured with THP-1 monocytes, RUX 1 μM, 48 hours
Protocol: MM patient #3041 bone marrow mononuclear cells were co-cultured with THP-1 monocytes with or without RUX (from […] to 10 μM) for 48 hours.
Next, we investigated the effects of ruxolitinib (RUX) on PD-L1 and PD-L2 gene expression in MM bone marrow mononuclear cells (BMMCs) co-cultured with THP-1 monocytes. THP-1 monocytes co-cultured with primary BMMCs from MM patient #3041 were grown in the presence or absence of RUX (1 μM).

PD-L2 gene expression = settings: MM patient; after 4 months of treatment vs before treatment; qPCR
From the text: (§2) A second sample of BMMCs was collected after treatment with ruxolitinib, methylprednisolone, and lenalidomide.

PD-L1 gene expression [5] = settings: MM patient; after 4 months of treatment vs before treatment; qPCR
From the text: as §2

MM cell = MM cell apoptosis in the presence of IL-2 stimulated T-cells (Example 11); assay type: cell-based, human; settings: RUX 0-5 μM; antibodies 0-10 μg/ml; concentration dependent
Protocol: as §1, with “mg/kg). […] In contrast, RUX had no effect on PD-1 expression on T-cells.” for “mg/kg).”

[6] = test system: PD-1 expression on T-cells; assay: PD-1 expression on T-cells (Example 11); assay type: cell-based

SMILES: N#CC[C@H](C1CCCC1)n1cc(-c2ncnc3[nH]ccc23)cn1 [RUX, ruxolitinib]
- PD-L1-expressing MM tumor cells (PD-L1 protein expression): reduced in a concentration dependent manner
- PD-L1 expression in the xenograft [1]: significantly decreased
- efficacy of monotherapy for multiple myeloma (multiple myeloma): ineffective
- B7-H3 expression in BM from patients in PD co-cultured with stromal cells (HS-5) (B7-H3; after 48-72 hours, Rux 1 μM): significantly reduced
- B7-H3 expression in MM cells (U266) (B7-H3; after 48-72 hours, Rux 1 μM): significantly reduced
- B7-H3 expression in MMBMMCs in patients with PD (B7-H3; after 48-72 hours, Rux 1 μM): significantly reduced
- B7H3 expression in human MM xenograft model LAGλ-1A (B7-H3; cultured ex vivo): decreased
- B7-H3 at protein levels (B7-H3; flow cytometric analysis and western blotting): suppressed
- PD-L2 gene and protein expression in MM tumor cells [2]: markedly reduced
- apoptosis of LAGκ-1A cells, single-agent treatment [3]: does not lead to significant apoptosis
- PD-L1 gene expression in MM BMMCs (PD-L1 gene expression [4]): marked decrease; also recorded: inhibits
- PD-L2 gene expression in BMMCs (PD-L2 gene expression): down-regulates
- PD-L1 gene expression in BMMCs (PD-L1 gene expression [5]): down-regulates
- MM cell apoptosis in the presence of IL-2 stimulated T-cells (MM cell): increased
- PD-1 expression on T-cells [6]: no effect
